Source: ChEMBL document CHEMBL1201862, “PubChem BioAssay data set” (2004)
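Five compound concentrations were applied to cells in 96-well plates for 48 hours; endpoints were derived by simple linear interpolation of the resulting dose-response curve. GI50 = concentration required for 50% inhibition of growth.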 Calls of active or inactive are those of the source. Rule as the data show it: active = GI50 up to about 1.1 µM and inactive = higher.

What was measured:
Test in all cases: NCI-60 cell line screen, 48 h
CAKI-1 = test system: CAKI-1
MDA-MB-435 = test system: MDA-MB-435
DU-145 = test system: DU-145
RXF 393 = test system: RXF 393
SF-539 = test system: SF-539
OVCAR-5 = test system: OVCAR-5
BT-549 = test system: BT-549
HCT-15 = test system: HCT-15
MCF7 = test system: MCF7
SF-295 = test system: SF-295
HCT-116 = test system: HCT-116
SN12C = test system: SN12C
NCI/ADR-RES = test system: NCI/ADR-RES
HOP-92 = test system: HOP-92
SF-268 = test system: SF-268
MOLT-4 = test system: MOLT-4
HT-29 = test system: HT-29
HL-60 = test system: HL-60
K562 = test system: K562
NCI-H460 = test system: NCI-H460
OVCAR-4 = test system: OVCAR-4
IGROV-1 = test system: IGROV-1
OVCAR-3 = test system: OVCAR-3
HOP-62 = test system: HOP-62
NCI-H23 = test system: NCI-H23
SK-MEL-2 = test system: SK-MEL-2
T47D = test system: T47D
NCI-H226 = test system: NCI-H226
NCI-H522 = test system: NCI-H522
ACHN = test system: ACHN
UACC-62 = test system: UACC-62
SR = test system: SR
MDA-MB-231 = test system: MDA-MB-231
SNB-19 = test system: SNB-19
PC-3 = test system: PC-3
SK-MEL-28 = test system: SK-MEL-28
MDA-N = test system: MDA-N
RPMI-8226 = test system: RPMI-8226
HCC 2998 = test system: HCC 2998
OVCAR-8 = test system: OVCAR-8
UO-31 = test system: UO-31
U-251 = test system: U-251
UACC-257 = test system: UACC-257
LOX IMVI = test system: LOX IMVI
M14 = test system: M14
COLO 205 = test system: COLO 205
CCRF-CEM = test system: CCRF-CEM
Hs-578T = test system: Hs-578T
SNB-75 = test system: SNB-75
SK-MEL-5 = test system: SK-MEL-5
KM12 = test system: KM12
EKVX = test system: EKVX
A549 = test system: A549
SK-OV-3 = test system: SK-OV-3
A498 = test system: A498
TK-10 = test system: TK-10
786-0 = test system: 786-0
SW-620 = test system: SW-620
Malme-3M = test system: Malme-3M

O=P1(Cc2ccccc2)c2ccccc2-c2ccccc21
GI50 (CAKI-1): 21.7 µM (inactive) | GI50 (MDA-MB-435): 0.764 µM (active) | GI50 (DU-145): 7.38 µM (inactive) | GI50 (RXF 393): 9.42 µM (inactive) | GI50 (SF-539): 6.21 µM (inactive) | GI50 (OVCAR-5): 12.1 µM (inactive) | GI50 (BT-549): 2.9 µM (inactive) | GI50 (HCT-15): 37.2 µM | GI50 (MCF7): 3.08 µM (inactive) | GI50 (SF-295): 5.98 µM (inactive) | GI50 (HCT-116): 2.86 µM (inactive) | GI50 (SN12C): 14.2 µM (inactive) | GI50 (NCI/ADR-RES): > 100 µM (inactive) | GI50 (HOP-92): 0.376 µM (active) | GI50 (SF-268): 9.12 µM (inactive) | GI50 (MOLT-4): 7.29 µM (inactive) | GI50 (HT-29): 2.37 µM (inactive) | GI50 (HL-60): 1.04 µM (active) | GI50 (K562): 1.41 µM (inactive) | GI50 (NCI-H460): 4.04 µM (inactive) | GI50 (OVCAR-4): 11 µM (inactive) | GI50 (IGROV-1): 2.33 µM (inactive) | GI50 (OVCAR-3): 1.06 µM (active) | GI50 (HOP-62): 6.47 µM (inactive) | GI50 (NCI-H23): 3.86 µM (inactive) | GI50 (SK-MEL-2): 2.18 µM (inactive) | GI50 (T47D): 0.0658 µM (active) | GI50 (NCI-H226): 5.77 µM (inactive) | GI50 (NCI-H522): 1.87 µM (inactive) | GI50 (ACHN): 11.2 µM (inactive) | GI50 (UACC-62): 1.96 µM (inactive) | GI50 (SR): 3.89 µM (inactive) | GI50 (MDA-MB-231): 20.7 µM (inactive) | GI50 (SNB-19): 3.69 µM (inactive) | GI50 (PC-3): 2.82 µM (inactive) | GI50 (SK-MEL-28): 4.13 µM (inactive) | GI50 (MDA-N): 1.22 µM (inactive) | GI50 (RPMI-8226): 0.65 µM (active) | GI50 (HCC 2998): 1.51 µM (inactive) | GI50 (OVCAR-8): 4.4 µM (inactive) | GI50 (UO-31): 20.6 µM (inactive) | GI50 (U-251): 3.88 µM (inactive) | GI50 (UACC-257): 1.86 µM (inactive) | GI50 (LOX IMVI): 4.74 µM (inactive) | GI50 (M14): 3.67 µM (inactive) | GI50 (COLO 205): 2.63 µM (inactive) | GI50 (CCRF-CEM): 6.04 µM (inactive) | GI50 (Hs-578T): 7.05 µM (inactive) | GI50 (SNB-75): 4.75 µM (inactive) | GI50 (SK-MEL-5): 1.46 µM (inactive) | GI50 (KM12): 1.08 µM (active) | GI50 (EKVX): 20.4 µM (inactive) | GI50 (A549): 8.81 µM (inactive) | GI50 (SK-OV-3): 15.7 µM (inactive) | GI50 (A498): 7.85 µM (inactive) | GI50 (TK-10): 5 µM (inactive) | GI50 (786-0): 7.94 µM (inactive) | GI50 (SW-620): 3.61 µM (inactive) | GI50 (Malme-3M): 2.15 µM (inactive)

OC(COc1cccc2ccccc12)CN1CCOCC1 (stereo not given)
GI50 (CAKI-1): > 100 µM (inactive) | GI50 (MDA-MB-435): > 100 µM (inactive) | GI50 (DU-145): > 100 µM (inactive) | GI50 (RXF 393): > 100 µM (inactive) | GI50 (SF-539): > 100 µM (inactive) | GI50 (OVCAR-5): > 100 µM (inactive) | GI50 (BT-549): > 100 µM (inactive) | GI50 (HCT-15): > 100 µM | GI50 (MCF7): > 100 µM (inactive) | GI50 (SF-295): > 100 µM (inactive) | GI50 (HCT-116): > 100 µM (inactive) | GI50 (SN12C): > 100 µM (inactive) | GI50 (NCI/ADR-RES): > 100 µM (inactive) | GI50 (HOP-92): 22.2 µM (inactive) | GI50 (SF-268): > 100 µM (inactive) | GI50 (MOLT-4): 44.6 µM (inactive) | GI50 (HT-29): > 100 µM (inactive) | GI50 (HL-60): > 100 µM (inactive) | GI50 (K562): > 100 µM (inactive) | GI50 (NCI-H460): > 100 µM (inactive) | GI50 (OVCAR-4): > 100 µM (inactive) | GI50 (IGROV-1): 39.9 µM (inactive) | GI50 (OVCAR-3): > 100 µM (inactive) | GI50 (HOP-62): > 100 µM (inactive) | GI50 (NCI-H23): > 100 µM (inactive) | GI50 (SK-MEL-2): > 100 µM (inactive) | GI50 (T47D): > 100 µM (inactive) | GI50 (NCI-H226): > 100 µM (inactive) | GI50 (NCI-H522): 54 µM (inactive) | GI50 (ACHN): > 100 µM (inactive) | GI50 (UACC-62): > 100 µM (inactive) | GI50 (SR): > 100 µM (inactive) | GI50 (MDA-MB-231): > 100 µM (inactive) | GI50 (SNB-19): > 100 µM (inactive) | GI50 (PC-3): > 100 µM (inactive) | GI50 (SK-MEL-28): > 100 µM (inactive) | GI50 (MDA-N): > 100 µM (inactive) | GI50 (RPMI-8226): > 100 µM (inactive) | GI50 (HCC 2998): > 100 µM (inactive) | GI50 (OVCAR-8): > 100 µM (inactive) | GI50 (UO-31): > 100 µM (inactive) | GI50 (U-251): > 100 µM (inactive) | GI50 (UACC-257): > 100 µM (inactive) | GI50 (LOX IMVI): > 100 µM (inactive) | GI50 (M14): > 100 µM (inactive) | GI50 (COLO 205): > 100 µM (inactive) | GI50 (CCRF-CEM): > 100 µM (inactive) | GI50 (Hs-578T): 75.5 µM (inactive) | GI50 (SNB-75): > 100 µM (inactive) | GI50 (SK-MEL-5): > 100 µM (inactive) | GI50 (KM12): > 100 µM (inactive) | GI50 (EKVX): 95.1 µM (inactive) | GI50 (A549): > 100 µM (inactive) | GI50 (SK-OV-3): > 100 µM (inactive) | GI50 (A498): > 100 µM (inactive) | GI50 (TK-10): > 100 µM (inactive) | GI50 (786-0): > 100 µM (inactive) | GI50 (SW-620): > 100 µM (inactive) | GI50 (Malme-3M): > 100 µM (inactive)

OCc1ccccc1O[C@H]1O[C@H](CO)[C@@H](O)[C@H](O)[C@H]1O
GI50 (CAKI-1): > 100 µM (inactive) | GI50 (MDA-MB-435): > 100 µM (inactive) | GI50 (DU-145): > 100 µM (inactive) | GI50 (RXF 393): > 100 µM (inactive) | GI50 (SF-539): > 100 µM (inactive) | GI50 (OVCAR-5): > 100 µM (inactive) | GI50 (BT-549): > 100 µM (inactive) | GI50 (HCT-15): > 100 µM | GI50 (MCF7): > 100 µM (inactive) | GI50 (SF-295): > 100 µM (inactive) | GI50 (HCT-116): > 100 µM (inactive) | GI50 (SN12C): > 100 µM (inactive) | GI50 (NCI/ADR-RES): > 100 µM (inactive) | GI50 (HOP-92): > 100 µM (inactive) | GI50 (SF-268): > 100 µM (inactive) | GI50 (MOLT-4): > 100 µM (inactive) | GI50 (HT-29): > 100 µM (inactive) | GI50 (HL-60): > 100 µM (inactive) | GI50 (NCI-H460): > 100 µM (inactive) | GI50 (OVCAR-4): > 100 µM (inactive) | GI50 (IGROV-1): > 100 µM (inactive) | GI50 (OVCAR-3): > 100 µM (inactive) | GI50 (HOP-62): > 100 µM (inactive) | GI50 (NCI-H23): > 100 µM (inactive) | GI50 (SK-MEL-2): > 100 µM (inactive) | GI50 (T47D): > 100 µM (inactive) | GI50 (NCI-H226): > 100 µM (inactive) | GI50 (NCI-H522): > 100 µM (inactive) | GI50 (ACHN): > 100 µM (inactive) | GI50 (UACC-62): > 100 µM (inactive) | GI50 (SR): > 10 µM (inactive) | GI50 (MDA-MB-231): > 100 µM (inactive) | GI50 (PC-3): > 100 µM (inactive) | GI50 (SK-MEL-28): > 100 µM (inactive) | GI50 (MDA-N): > 100 µM (inactive) | GI50 (RPMI-8226): > 100 µM (inactive) | GI50 (HCC 2998): > 100 µM (inactive) | GI50 (OVCAR-8): > 100 µM (inactive) | GI50 (UO-31): > 100 µM (inactive) | GI50 (U-251): > 100 µM (inactive) | GI50 (UACC-257): > 100 µM (inactive) | GI50 (LOX IMVI): > 100 µM (inactive) | GI50 (M14): > 100 µM (inactive) | GI50 (COLO 205): > 100 µM (inactive) | GI50 (CCRF-CEM): > 100 µM (inactive) | GI50 (Hs-578T): > 100 µM (inactive) | GI50 (SNB-75): > 100 µM (inactive) | GI50 (SK-MEL-5): > 100 µM (inactive) | GI50 (KM12): > 100 µM (inactive) | GI50 (EKVX): > 100 µM (inactive) | GI50 (A549): > 100 µM (inactive) | GI50 (SK-OV-3): > 100 µM (inactive) | GI50 (A498): > 100 µM (inactive) | GI50 (TK-10): > 100 µM (inactive) | GI50 (786-0): > 100 µM (inactive) | GI50 (SW-620): > 100 µM (inactive) | GI50 (Malme-3M): > 100 µM (inactive)
